Assay results reported in the CheMixHub viscosity set.
“And” between values parts separate entries of the source, which are not always exact repeats. Equal entries are not always repeated.

Experiments:
[1] = xn = mol fraction of the nth substance listed

CCCCOCCOCCOCCO
101 kPa
Conditions	viscosity [mPa·s]
293.15 K	9.282
303.15 K	6.528
313.15 K	4.979
323.15 K	3.769

CCCCCCCCCCCC[N+](C)(C)Cc1ccccc1.O=S(=O)([N-]S(=O)(=O)C(F)(F)F)C(F)(F)F
101 kPa
Conditions	viscosity [mPa·s]
298.15 K	1425
303.15 K	974.3
308.15 K	682.7
313.15 K	484.8
318.15 K	351.1
323.15 K	260.6

OCC1CC1
101 kPa
Conditions	viscosity [mPa·s]
293.15 K	3.985
298.15 K	3.447
303.15 K	3.002
308.15 K	2.629
313.15 K	2.315
323.15 K	1.819

CCCCOC(=O)C(C)O (centres undefined)
Conditions	viscosity [mPa·s]
318.15 K, 101 kPa	1.935

CCCCCCn1cc[n+](C)c1.F[P-](F)(F)(F)(F)F
101 kPa
Conditions	viscosity [mPa·s]
303.15 K	497.1
308.15 K	364.4
313.15 K	273
318.15 K	208.5

C=Cn1cc[n+](CC(N)=O)c1.O=S(=O)([N-]S(=O)(=O)C(F)(F)F)C(F)(F)F
100 kPa
Conditions	viscosity [mPa·s]
298.15 K	280.7
303.15 K	140.3
308.15 K	71.51
313.15 K	35.3
318.15 K	19.85
323.15 K	12.53

C[N+](=O)[O-]
Conditions	viscosity
293.15 K, 101 kPa	0.648 mPa·s
293.15 K, 101.33 kPa	0.644 mPa·s and 0.644 mPa·s and 0.646 mPa·s
298 K, 101.3 kPa	0.627 mPa·s
298.15 K, 101.33 kPa	0.6215 mPa·s and 0.615 mPa·s
298.45 K, 101 kPa	0.619 mPa·s
303.15 K, 101.33 kPa	0.581 mPa·s and 0.581 mPa·s
313.15 K, 101.33 kPa	0.522 mPa·s and 0.522 mPa·s
318 K, 101.3 kPa	0.5187 mPa·s
318.15 K, 101 kPa	0.5208 mPa·s and 0.51 mPa·s and 0.505 mPa·s
323.15 K, 101 kPa	0.486 mPa·s
323.15 K, 101.33 kPa	0.4845 mPa·s

CCCCC(CC)COP(=O)(O)OCC(CC)CCCC (centres undefined)
101 kPa
Conditions	viscosity [mPa·s]
303.15 K	20.25
313.15 K	13.35

CCCC[n+]1cc[nH]c1.O=S(=O)([N-]S(=O)(=O)C(F)(F)F)C(F)(F)F
Conditions	viscosity [mPa·s]
313.2 K, 101.33 kPa	47.18

O=Cc1ccco1
100 kPa
Conditions	viscosity [mPa·s]
293.15 K	1.62
298.15 K	1.48
303.15 K	1.36
308.15 K	1.26
313.15 K	1.17
318.15 K	1.09
323.15 K	1.02

CC1CCC(=O)O1 (centres undefined)
101 kPa
Conditions	viscosity [mPa·s]
298.15 K	1.873
303.15 K	1.72
308.15 K	1.586
313.15 K	1.458
318.15 K	1.364

c1ccc(Cc2ccccc2)cc1
Conditions	viscosity [mPa·s]
302.85 K, 101 kPa	2.611

CC(=O)c1ccc(C)cc1
303.15 K
Conditions	viscosity [mPa·s]
100 kPa	1.581
101 kPa	1.581

Cc1cccc(O)c1
Conditions	viscosity
293.15 K, 101 kPa	16.9 mPa·s
298 K, 101.3 kPa	13.19 mPa·s
303 K, 101.3 kPa	9.877 mPa·s
308 K, 101.3 kPa	7.599 mPa·s
308.15 K, 101.33 kPa	7.635 mPa·s
313 K, 101.3 kPa	6.146 mPa·s
313.15 K, 101 kPa	5.925 mPa·s and 6.542 mPa·s
313.15 K, 101.3 kPa	6.252 mPa·s
313.15 K, 101.33 kPa	6.18 mPa·s
318 K, 101.3 kPa	4.968 mPa·s
318.15 K, 101 kPa	5.373 mPa·s and 5.373 mPa·s
323.15 K, 101.3 kPa	4.111 mPa·s

CCCCCCCCCCCCN
Conditions	viscosity [mPa·s]
303.15 K, 101 kPa	2.658

N#C[S-].NC(N)=[NH2+] + CC(N)=O
viscosity [mPa·s], [1], 100 kPa
Conditions	293.15 K	298.13 K	303.15 K	308.15 K	313.15 K	318.15 K	323.15 K
x1 = 0.2	–	–	16.53	13.36	10.98	9.17	7.72
x1 = 0.25	25.56	21.49	17.47	14.41	12.05	10.31	8.95
x1 = 0.3333	25.06	21.05	17.16	14.05	11.66	9.89	8.48

C[N+](=O)[O-] + CCCCO
viscosity [mPa·s], [1], 101 kPa
Conditions	298.15 K	303.15 K	308.15 K	313.15 K	318.15 K	323.15 K
x1 = 0.1	–	1.815	1.607	1.438	1.283	1.156
x1 = 0.1589	1.93	–	–	–	–	–
x1 = 0.2	–	1.448	1.305	1.172	1.067	0.968
x1 = 0.299	1.499	–	–	–	–	–
x1 = 0.2999	–	1.218	1.107	0.996	0.906	0.828
x1 = 0.4	–	1.052	0.955	0.868	0.8	0.73
x1 = 0.4222	1.172	–	–	–	–	–
x1 = 0.5016	–	0.918	0.834	0.762	0.7	0.646
x1 = 0.5319	0.9681	–	–	–	–	–
x1 = 0.6017	–	0.802	0.73	0.672	0.622	0.578
x1 = 0.6302	0.8288	–	–	–	–	–
x1 = 0.6991	–	0.706	0.654	0.605	0.565	0.527
x1 = 0.7188	0.7435	–	–	–	–	–
x1 = 0.7993	0.6894	–	–	–	–	–
x1 = 0.8059	–	0.624	0.583	0.549	0.518	0.488
x1 = 0.8718	0.6557	–	–	–	–	–
x1 = 0.903	–	0.586	0.553	0.524	0.499	0.474
x1 = 0.9387	0.6378	–	–	–	–	–

CCCCCCCCCCCCN + C1CCCCC1
[1], 303.15 K, 101 kPa
Conditions	viscosity [mPa·s]
x2 = 0.2093	2.31
x2 = 0.3927	1.948
x2 = 0.5029	1.709
x2 = 0.6032	1.492
x2 = 0.8037	1.116

N
Conditions	viscosity [mPa·s]
293.15 K, 101 kPa	0.144

CCC1(C)OC1C#N (centres undefined)
101 kPa
Conditions	viscosity [mPa·s]
293.15 K	1.485
298.15 K	1.34
303.15 K	1.19
313.15 K	0.98
323.15 K	0.84

[Na+].[Na+].[O]=[Cr](=[O])([O-])[O-] + O
viscosity, [1], 101 kPa
Conditions	x1 = 0.012	x1 = 0.02109	x1 = 0.027	x1 = 0.045	x1 = 0.069	x1 = 0.083
298.15 K	1.16 mPa·s	1.38 mPa·s	1.68 mPa·s	2.88 mPa·s	6.14 mPa·s	10.03 mPa·s
312.95 K	0.85 mPa·s and 0.8523 mPa·s	–	1.23 mPa·s	1.98 mPa·s	3.9 mPa·s	5.94 mPa·s

O=Cc1ccco1 + CCCC[P+](C)(CCCC)CCCC.COS(=O)(=O)[O-]
viscosity [mPa·s], [1], 100 kPa
Conditions	293.15 K	298.15 K	303.15 K	308.15 K	313.15 K	318.15 K	323.15 K
x2 = 0.062	2.53	–	–	–	–	–	–
x2 = 0.1	8.96	3.49	3.13	2.99	2.64	2.46	–
x2 = 0.142	–	–	4.13	3.99	3.64	3.46	–
x2 = 0.191	41.29	–	–	5.55	5.56	4.32	4.01
x2 = 0.249	64.53	30.58	–	–	–	–	–
x2 = 0.317	–	46.54	24.83	–	8.79	–	6.01
x2 = 0.399	–	72.22	39.81	–	–	9.92	–
x2 = 0.499	–	–	–	33.52	–	–	–
x2 = 0.624	270.6	–	–	58.28	–	32.22	26.66
x2 = 0.732	396.3	265.6	–	133.5	–	81.46	73.46
x2 = 0.823	501.6	350.8	255.5	–	–	116.5	99.45
x2 = 0.863	555	392.6	287.1	–	–	–	–
x2 = 0.91	614.7	435.6	319.2	–	–	–	–
x2 = 0.951	664.4	475.8	351.2	265.8	–	158.5	–

Cc1cccc(O)c1 + Cc1ccccc1
[1], 308.15 K, 101 kPa
Conditions	viscosity [mPa·s]
x1 = 0.0892	0.5693
x1 = 0.198	0.7009
x1 = 0.3227	0.9138
x1 = 0.4371	1.215
x1 = 0.5644	1.71
x1 = 0.6801	2.44
x1 = 0.7905	3.416
x1 = 0.8866	4.871
x1 = 0.9596	6.414
